# What was measured:
# [1] = system: Staphylococcus epidermidis; assay: Cell suspension kill test in MES buffer, quench, plate count; type: cell-based; details: 50 mM MES pH 6.5; for Bacterial no. After 60 mins. / Bacterial no. Immediate: S. epidermidis suspension, amounts in weight %; for Bacterial no. Immediate: sample removed immediately; for Reduction in bacterial no. / Bacterial no. (concentration of bacteria remaining after 60 minutes): S. epidermidis; for Reduction in bacterial no.: amounts in mM; for Bacterial no. (concentration of bacteria remaining after 60 minutes): Table 6, percarbonate
# Method: A cell suspension of Staphylococcus epidermidis in 50 mM MES buffer (2-[N-morpholino]ethanesulfonic acid, Sigma M5287) was prepared to an OD600 nm of 0.022 and equal portions were treated with the components indicated in Table 3, to give the weight percentages also indicated. Samples were removed immediately and after 60 minutes; said samples being decimally diluted in a quench solution (vide infra) and then plated onto a suitable culture medium. The plates were incubated at 37° C. for 48 hours, then read and the bacterial numbers calculated.
# The quench solution used was a solution of:
# in 37.5 mM phosphate buffer, at pH 7.9, containing 0.05% v/v Triton X-100 (iso-octyl phenoxy polyoxyethanol).
# In this Table, the amounts indicated are milliMolar concentrations and the antimicrobial effect is expressed in terms of the reduction in bacterial numbers achieved.
# In these Tables, the amounts indicated are milliMolar concentrations and the antimicrobial effect is expressed in terms of the concentration of bacteria remaining after 60 minutes.
# Corynebacteria = assay: Cell suspension kill test in MES buffer, quench, plate count (Corynebacteria); type: cell-based; details: amounts in mM; for Bacterial no. After 60 mins.: 50 mM MES pH 6.5, after 60 minutes; for Bacterial no. Immediate: 50 mM MES pH 6.5, sample removed immediately
# Method: A cell suspension of Staphylococcus epidermidis in 50 mM MES buffer (2-[N-morpholino]ethanesulfonic acid, Sigma M5287) was prepared to an OD600 nm of 0.022 and equal portions were treated with the components indicated in Table 3, to give the weight percentages also indicated. […] The plates were incubated at 37° C. for 48 hours, then read and the bacterial numbers calculated. The quench solution used was a solution of: in 37.5 mM phosphate buffer, at pH 7.9, containing 0.05% v/v Triton X-100 (iso-octyl phenoxy polyoxyethanol). An analogous experiment to that performed with Example 3, with the modification of using Corynebacteria rather than S. epidermidis, was performed with the components indicated in Table 5. In this Table, the amounts indicated are milliMolar concentrations and the effect is expressed as in Table 3.
Molecule,Reduction in bacterial no. [1],Bacterial no. After 60 mins. (Corynebacteria),Bacterial no. Immediate (Corynebacteria),further results
"O=C(O)c1ccccn1 [D, Picolinic acid]",–,–,–,Bacterial no. After 60 mins. [1]: 6.50 Log10cfu/ml; Bacterial no. Immediate [1]: 6.60 Log10cfu/ml
"O=C(CCCCCN1C(=O)c2ccccc2C1=O)OO [Example E, phthalimidoperoxy hexanoic acid]",–,–,–,Bacterial no. After 60 mins. [1]: 6.50 Log10cfu/ml; Bacterial no. Immediate [1]: 6.47 Log10cfu/ml
"O=C(O)c1ccccn1 [Example F, Picolinic acid]",<2.59 Log10cfu/ml,–,–,–
"O.O=BO[O-].[Na+] [Example G, Perborate.H2O]",<2.59 Log10cfu/ml,–,–,–
"O=C(O)c1ccccn1 [J, Picolinic acid]",–,6.0 Log10cfu/ml,6.1 Log10cfu/ml,–
"OO [K, Hydrogen peroxide]",–,4.6 Log10cfu/ml,6.1 Log10cfu/ml,–
"O=C(O)CN(CCN(CC(=O)O)CC(=O)O)CCN(CC(=O)O)CC(=O)O [L, Diethylenetriaminapentaacetic acid]",–,5.9 Log10cfu/ml,6.0 Log10cfu/ml,–
"O=C([O-])[O-].O=C([O-])[O-].OO.OO.OO.[Na+].[Na+].[Na+].[Na+] [N, Percarbonate]",–,–,–,Bacterial no. (concentration of bacteria remaining after 60 minutes) [1]: 6.13 Log10cfu/ml
"O=C([O-])[O-].O=C([O-])[O-].OO.OO.OO.[Na+].[Na+].[Na+].[Na+] [O, Percarbonate]",–,–,–,Bacterial no. (concentration of bacteria remaining after 60 minutes) [1]: 6.39 Log10cfu/ml
Perborate.4 H2O [Example H],<2.59 Log10cfu/ml,–,–,–
